The values below come from patent publication US5413990A, “N-terminus modified analogs of LHRH” (Tap Pharmaceuticals Inc., priority 1993, dated 1995).

Numbered stars: 1 amine (or outer) side, 2 acyl side, 3 side chain; on linkers, the order of the positions; unused ones are H or OH. Square brackets hold non-standard residues; d marks the D form. Peptide text beside a SMILES is read from it. * marks the point of attachment. dPhe(4-Cl) = N[C@H](Cc1ccc(Cl)cc1)C(=O)O; Desaminotyrosyl = O=C(CCc1ccc(O)cc1)*; d2Nal = N[C@H](Cc1ccc2ccccc2c1)C(=O)O; Lys(iPr) = CC(C)NCCCC[C@H](N)C(=O)O; NMeY = CN[C@@H](Cc1ccc(O)cc1)C(=O)O; NHCH2(2-pyridyl) = c1ccc(CN*)nc1; dCit = NC(=O)NCCC[C@@H](N)C(=O)O; d3Pal = N[C@H](Cc1cccnc1)C(=O)O; Suc = O=C(CCC(=O)[*:2])[*:1]; Nicotinoyl = O=C(c1cccnc1)*; Isobutyryl = CC(C)C(=O)*; CO = O=C([*:1])[*:2]; Propionyl = CCC(=O)*

The experiment has as its target T1, LHRH (Rattus norvegicus, UniProt P30969).
T1 construct: evaluated in an in vitro test for LHRH antagonist potency (pA2); endogenous in cells; host or cells: pituitary cells (rat, from my own knowledge of the cited method)
T1 sequence (P30969 1-327): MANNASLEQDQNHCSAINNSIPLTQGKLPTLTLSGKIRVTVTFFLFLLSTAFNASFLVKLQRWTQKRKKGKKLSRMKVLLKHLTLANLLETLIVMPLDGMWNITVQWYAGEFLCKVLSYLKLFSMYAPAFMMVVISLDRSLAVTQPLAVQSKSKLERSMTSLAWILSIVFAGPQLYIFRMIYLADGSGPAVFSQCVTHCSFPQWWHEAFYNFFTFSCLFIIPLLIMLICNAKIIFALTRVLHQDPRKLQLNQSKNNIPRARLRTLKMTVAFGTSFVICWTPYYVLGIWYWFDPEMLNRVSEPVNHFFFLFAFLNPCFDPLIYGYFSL
In words: in vitro test for LHRH antagonist potency (pA2). It counts as cell-based. The conditions noted are these: negative logarithm of the antagonist concentration required to shift the response curve produced by the agonist leuprolide to two-fold higher concentration. How it is done: Representative compounds of the present invention were evaluated in an in vitro test for LHRH antagonist potency (pA2). The test employed the method detailed in F. Haviv, et al. J. Med. Chem., 32:2340-2344 (1989). The values of pA2 are the negative logarithms of the concentration of the particular antagonist test compound required to shift the response curve produced by the agonist leuprolide to two-fold higher concentration. (Leuprolide is the LHRH agonist having the structure 5-oxo-Pro^1 -His^2 -Trp^3 -Ser^4 -Tyr^5 -D-Leu^6 -Leu^7 -Arg^8 -Pro^9 -NHEt and is disclosed and claimed in U.S. Pat. No. 4,005,063.) Typically pA2 values of 9.5 or greater are indicative of good LHRH antagonist potency, with values of 10.0 or greater being preferred.

Regarding `CC(C)C[C@H](NC(=O)[C@@H](CCCCNC(=O)c1cccnc1)NC(=O)[C@H](Cc1ccc(O)cc1)N(C)C(=O)[C@H](CO)NC(=O)[C@@H](Cc1cccnc1)NC(=O)[C@@H](Cc1ccc(Cl)cc1)NC(=O)[C@@H](Cc1ccc2ccccc2c1)NC(=O)CCc1ccc(O)cc1)C(=O)N[C@@H](CCCCNC(C)C)C(=O)N1CCC[C@H]1C(=O)N[C@H](C)C(N)=O` [Example 2m, N-3-(4-Hydroxyphenyl)propionyl-D2Nal-D4ClPhe-D3Pal-Ser-NMeTyr-DLys(N-epsilon-Nicotinyl)-Leu-Lys(N-epsilon -Isopropyl)-Pro-DAlaNH2] (Desaminotyrosyl-[d2Nal][dPhe(4-Cl)][d3Pal]S[NMeY][dK](Nicotinoyl)L[Lys(iPr)]P[dA]-NH2), the Kb was 20 pM.
Take `CC(C)C[C@H](NC(=O)[C@@H](CCCCNC(=O)c1cccnc1)NC(=O)[C@H](Cc1ccc(O)cc1)N(C)C(=O)[C@H](CO)NC(=O)[C@@H](Cc1cccnc1)NC(=O)[C@@H](Cc1ccc(Cl)cc1)NC(=O)[C@@H](Cc1ccc2ccccc2c1)NC(=O)CCC(=O)O)C(=O)N[C@@H](CCCCNC(C)C)C(=O)N1CCC[C@H]1C(=O)N[C@H](C)C(N)=O` [Example 3, N-Succinyl-D2Nal-D4ClPhe-D3Pal-Ser-NMeTyr-DLys(Nicotinyl)-Leu-Lys(N-epsilon-lsopropyl.)-Pro-DAlaNH2] (Suc-[d2Nal][dPhe(4-Cl)][d3Pal]S[NMeY][dK](Nicotinoyl)L[Lys(iPr)]P[dA]-NH2): the Kb was 51.3 pM.
In the case of `CC(C)C[C@H](NC(=O)[C@@H](CCCNC(N)=O)NC(=O)[C@H](Cc1ccc(O)cc1)N(C)C(=O)[C@H](CO)NC(=O)[C@@H](Cc1cccnc1)NC(=O)[C@@H](Cc1ccc(Cl)cc1)NC(=O)[C@@H](Cc1ccc2ccccc2c1)NC(=O)NCc1ccccn1)C(=O)N[C@@H](CCCNC(=N)N)C(=O)N1CCC[C@H]1C(=O)N[C@H](C)C(N)=O` [Example 8e, N-(2-Pyridyhnethylaminocarbonyl)-D2Nal-D4ClPhe-D3Pal- Ser-NMeTyr-DCit-Leu-Arg-Pro-DAlaNH2] ({NHCH2(2-pyridyl)-CO}-[d2Nal][dPhe(4-Cl)][d3Pal]S[NMeY][dCit]LRP[dA]-NH2), the antagonist dissociation constant (Kb) is 6.76 pM.
Turning to `CCC(=O)N[C@H](Cc1ccc2ccccc2c1)C(=O)N[C@H](Cc1ccc(Cl)cc1)C(=O)N[C@H](Cc1cccnc1)C(=O)N[C@@H](CO)C(=O)N(C)[C@@H](Cc1ccc(O)cc1)C(=O)N[C@H](CCCNC(N)=O)C(=O)N[C@@H](CC(C)C)C(=O)N[C@@H](CCCNC(=N)N)C(=O)N1CCC[C@H]1C(=O)N[C@H](C)C(N)=O` [Example 5b, N-Propionyl-D2Nal-D4ClPhe-D3Pal-Ser-NMeTyr-DCit-Leu-Arg-Pro-DAlaNH2] (Propionyl-[d2Nal][dPhe(4-Cl)][d3Pal]S[NMeY][dCit]LRP[dA]-NH2), the antagonist equilibrium constant (Kb) was 3.47 pM.
In the case of `CC(C)C[C@H](NC(=O)[C@@H](CCCCNC(=O)c1cccnc1)NC(=O)[C@H](Cc1ccc(O)cc1)N(C)C(=O)[C@H](CO)NC(=O)[C@@H](Cc1cccnc1)NC(=O)[C@@H](Cc1ccc(Cl)cc1)NC(=O)[C@@H](Cc1ccc2ccccc2c1)NC(=O)C(C)C)C(=O)N[C@@H](CCCCNC(C)C)C(=O)N1CCC[C@H]1C(=O)N[C@H](C)C(N)=O` [Example 2c, N-Isobutyryl-D2Nal-D4ClPhe-D3Pal- Ser-NMeTyr-DLys(N-epsilon-Nicotinyl)-Leu-Lys(N-epsilon-Isopropyl)-Pro-DAlaNH2] (Isobutyryl-[d2Nal][dPhe(4-Cl)][d3Pal]S[NMeY][dK](Nicotinoyl)L[Lys(iPr)]P[dA]-NH2), the antagonist equilibrium constant (Kb) is 17.8 pM.

Usually Kb stands for the equilibrium dissociation constant of an antagonist, usually derived from a functional assay.
